According to patent publication US10253039B2, “Inhibitors of bacterial DNA gyrase with efficacy against gram-negative bacteria” (priority 2014, dated 2019):
Values after ≈ are worked out from the molar mass of the structure shown. Like-named read-outs stand apart in the source and are kept apart here.

What was measured:
Format in all cases: cell-based
E. coli BW25113 = assay: MIC, microdilution in 96-well plates; conditions: Escherichia coli, read-out: MIC
Procedure, shortened: (§1)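 Using LB medium and a 1:10000 starting inoculum, compounds were diluted stepwise by half in triplicate, DMSO serving as vehicle control. Shaking incubation ran 16-18 hours at 37° C. before wells were visually checked for turbidity to assign MIC.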

Edwardsiella tarda = assay: MIC, microdilution in 96-well plates
Procedure, shortened: as §1

E. coli JW5503 (deltolC) = assay: MIC, 20-strain panel; conditions: Escherichia coli
Procedure, shortened: as §1

E. coli MG1655 = assay: MIC, 20-strain panel; conditions: Escherichia coli, read-out: MIC
Procedure, shortened: as §1

[1] = system: Klebsiella pneumoniae subsp. pneumoniae; assay: MIC, 20-strain panel
Procedure, shortened: as §1

[2] = system: Salmonella enterica subsp. enterica typhimurium; assay: MIC, 20-strain panel
Procedure, shortened: as §1

Shigella flexneri = assay: MIC, 20-strain panel
Procedure, shortened: as §1

[3] = system: Staphylococcus aureus subsp. aureus; assay: MIC, 20-strain panel; conditions: read-out: MIC
Procedure, shortened: as §1

[4] = system: Staphylococcus epidermidis; assay: MIC, 20-strain panel
Procedure, shortened: as §1

[5] = system: Staphylococcus saprophyticus subsp. saprophyticus; assay: MIC, 20-strain panel
Procedure, shortened: as §1

Streptococcus agalactiae = assay: MIC, 20-strain panel
Procedure, shortened: as §1

Streptococcus pyogenes = assay: MIC, 20-strain panel
Procedure, shortened: as §1

[6] = E: Klebsiella pneumoniae subsp. pneumoniae
[7] = F: Salmonella enterica subsp. enterica Typhimurium
[8] = H: Staphylococcus aureus subsp. aureus
[9] = Klebsiella pneumoniae subsp. pneumoniae
[10] = Salmonella enterica subsp. enterica Typhimurium
[11] = Staphylococcus aureus subsp. aureus

Compound	MIC (E. coli BW25113; BW25113, B: E. coli BW25113)	MIC (Edwardsiella tarda; D: Edwardsiella tarda)	MIC (E. coli JW5503 (deltolC); C: E. coli JW5503 (deltolC))	MIC (E. coli MG1655; MG1655, A: E. coli MG1655)	MIC [1, 6]	MIC [2, 7]	MIC (Shigella flexneri; G: Shigella flexneri)	MIC [3, 8]	MIC [4]	MIC [5]	MIC (Streptococcus agalactiae)	MIC (Streptococcus pyogenes)	MIC (E. coli BW25113; BW25113, E. coli BW25113)	MIC (Edwardsiella tarda)	MIC (E. coli JW5503 (deltolC); E. coli JW5503 (deltolC))	MIC (E. coli MG1655; MG1655, E. coli MG1655)	MIC [1, 9]	MIC [2, 10]	MIC (Shigella flexneri)	MIC [3, 11]
CSc1ccc(CN2CC[C@@H](NS(=O)(=O)c3cccc(C#N)c3)C2)cc1 [Compound 31]	> 8 µg/mL	> 8 µg/mL	~8 µg/mL (≈ 20.6 µM)	> 8 µg/mL	> 8 µg/mL	> 8 µg/mL	> 8 µg/mL	> 8 µg/mL	> 8 µg/mL	> 8 µg/mL	> 8 µg/mL	> 8 µg/mL	–	–	–	–	–	–	–	–
O=S(=O)(N[C@@H]1CCN(Cc2ccc(-c3ccccc3)cc2)C1)c1cc(C(F)(F)F)ccc1F [Compound 114]	> 8 µg/mL	> 8 µg/mL	1 µg/mL (≈ 2.09 µM)	> 8 µg/mL	> 8 µg/mL	4 µg/mL (≈ 8.36 µM)	> 8 µg/mL	> 8 µg/mL	~8 µg/mL (≈ 16.7 µM)	> 8 µg/mL	> 8 µg/mL	~8 µg/mL (≈ 16.7 µM)	–	–	–	–	–	–	–	–
O=S(=O)(N[C@@H]1CCN(Cc2ccc(-c3cccs3)cc2)C1)c1cccc(C(F)(F)F)c1 [Compound 32]	> 8 µg/mL	> 8 µg/mL	1 µg/mL (≈ 2.14 µM)	> 8 µg/mL	> 8 µg/mL	8 µg/mL (≈ 17.1 µM)	> 8 µg/mL	> 8 µg/mL	8 µg/mL (≈ 17.1 µM)	> 8 µg/mL	> 8 µg/mL	8 µg/mL (≈ 17.1 µM)	–	–	–	–	–	–	–	–
O=S(=O)(N[C@@H]1CCN(Cc2ccc(OC3CC3)cc2)C1)c1ccc(Cl)cn1 [Compound 132]	–	–	–	–	–	–	–	–	> 8 µg/mL	> 8 µg/mL	> 8 µg/mL	> 8 µg/mL	> 8 µg/mL	> 8 µg/mL	> 8 µg/mL	> 8 µg/mL	> 8 µg/mL	> 8 µg/mL	> 8 µg/mL	> 8 µg/mL
CC(C)(C)Oc1ccc(CN2CC[C@@H](NS(=O)(=O)c3cccc(OC(F)(F)F)c3)C2)cc1 [Compound 26]	> 8 µg/mL	> 8 µg/mL	0.5 µg/mL (≈ 1.06 µM)	> 8 µg/mL	> 8 µg/mL	> 8 µg/mL	> 8 µg/mL	> 8 µg/mL	> 8 µg/mL	> 8 µg/mL	> 8 µg/mL	> 8 µg/mL	–	–	–	–	–	–	–	–
Cc1c(S(=O)(=O)N[C@@H]2CCN(Cc3ccc(OC4CC4)cc3)C2)sc2ccc(Cl)cc12 [Compound 85]	> 8 µg/mL	> 8 µg/mL	~8 µg/mL (≈ 16.8 µM)	> 8 µg/mL	> 8 µg/mL	> 8 µg/mL	> 8 µg/mL	~8 µg/mL (≈ 16.8 µM)	4 µg/mL (≈ 8.38 µM)	> 8 µg/mL	> 8 µg/mL	8 µg/mL (≈ 16.8 µM)	–	–	–	–	–	–	–	–
O=S(=O)(N[C@@H]1CCN(Cc2ccc(OC3CC3)cc2)C1)c1cnccc1Cl [Compound 169]	–	–	–	–	–	–	–	–	> 8 µg/mL	> 8 µg/mL	> 8 µg/mL	> 8 µg/mL	> 8 µg/mL	> 8 µg/mL	> 8 µg/mL	> 8 µg/mL	> 8 µg/mL	> 8 µg/mL	> 8 µg/mL	> 8 µg/mL
Cc1nn(C)c2ncc(S(=O)(=O)N[C@@H]3CCN(Cc4ccc(OC(C)C)cc4)C3)cc12 [Compound 123]	> 8 µg/mL	> 8 µg/mL	> 8 µg/mL	> 8 µg/mL	> 8 µg/mL	> 8 µg/mL	> 8 µg/mL	> 8 µg/mL	> 8 µg/mL	> 8 µg/mL	> 8 µg/mL	> 8 µg/mL	–	–	–	–	–	–	–	–
CN1C(=O)Cc2cc(S(=O)(=O)N[C@@H]3CCN(Cc4ccc(-c5ccccc5)cc4)C3)ccc21 [Compound 180]	–	–	–	–	–	–	–	–	> 8 µg/mL	> 8 µg/mL	> 8 µg/mL	> 8 µg/mL	> 8 µg/mL	> 8 µg/mL	> 8 µg/mL	> 8 µg/mL	> 8 µg/mL	> 8 µg/mL	> 8 µg/mL	> 8 µg/mL
CC(C)Oc1ccc(CN2CC[C@@H](NS(=O)(=O)c3cnc4ccccc4c3)C2)cc1 [Compound 93]	> 8 µg/mL	> 8 µg/mL	> 8 µg/mL	> 8 µg/mL	> 8 µg/mL	> 8 µg/mL	> 8 µg/mL	> 8 µg/mL	> 8 µg/mL	> 8 µg/mL	> 8 µg/mL	> 8 µg/mL	–	–	–	–	–	–	–	–
O=S(=O)(N[C@@H]1CCN(Cc2ccc(OCC(F)F)cc2)C1)c1cccc(OC(F)(F)F)c1 [Compound 89]	> 8 µg/mL	> 8 µg/mL	0.5 µg/mL (≈ 1.04 µM)	> 8 µg/mL	> 8 µg/mL	8 µg/mL (≈ 16.7 µM)	> 8 µg/mL	> 8 µg/mL	> 8 µg/mL	> 8 µg/mL	> 8 µg/mL	> 8 µg/mL	–	–	–	–	–	–	–	–
CC(C)Oc1ccc(CN2CC[C@@H](NS(=O)(=O)c3cc(C(F)(F)F)cc(C(F)(F)F)c3)C2)cc1 [Compound 135]	–	–	–	–	–	–	–	–	> 8 µg/mL	> 8 µg/mL	> 8 µg/mL	> 8 µg/mL	> 8 µg/mL	> 8 µg/mL	8 µg/mL (≈ 15.7 µM)	> 8 µg/mL	> 8 µg/mL	> 8 µg/mL	> 8 µg/mL	> 8 µg/mL
O=S(=O)(N[C@@H]1CCN(Cc2ccc3c(c2)OCCO3)C1)c1cccc(OC(F)(F)F)c1 [Compound 62]	> 8 µg/mL	> 8 µg/mL	8 µg/mL (≈ 17.4 µM)	> 8 µg/mL	> 8 µg/mL	> 8 µg/mL	> 8 µg/mL	> 8 µg/mL	> 8 µg/mL	> 8 µg/mL	> 8 µg/mL	> 8 µg/mL	–	–	–	–	–	–	–	–
O=C1CCCN1c1ccc(CN2CC[C@@H](NS(=O)(=O)c3cccc(C(F)(F)F)c3)C2)cc1 [Compound 99]	> 8 µg/mL	> 8 µg/mL	2 µg/mL (≈ 4.28 µM)	> 8 µg/mL	> 8 µg/mL	> 8 µg/mL	> 8 µg/mL	> 8 µg/mL	> 8 µg/mL	> 8 µg/mL	> 8 µg/mL	> 8 µg/mL	–	–	–	–	–	–	–	–
Cc1ccc(S(=O)(=O)N[C@@H]2CCN(Cc3ccc(-c4ccccc4)cc3)C2)cn1 [Compound 174]	–	–	–	–	–	–	–	–	> 8 µg/mL	> 8 µg/mL	> 8 µg/mL	> 8 µg/mL	> 8 µg/mL	> 8 µg/mL	> 8 µg/mL	> 8 µg/mL	> 8 µg/mL	> 8 µg/mL	> 8 µg/mL	> 8 µg/mL
